Reference: PubChem BioAssay (NCI)
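The compound was tested at five concentrations on cells cultured in 96-well plates, with a 48-hour exposure period. TGI is the concentration that stops growth completely.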

What was measured:
Assay in all cases: NCI tumour cell line growth inhibition, 48 h
A549 NSCLC = test system: A549 NSCLC
ACHN renal = test system: ACHN renal
CAKI-1 renal = test system: CAKI-1 renal
CCRF-CEM leukemia = test system: CCRF-CEM leukemia
COLO 205 colon = test system: COLO 205 colon
DMS 114 small cell lung = test system: DMS 114 small cell lung
DMS 273 small cell lung = test system: DMS 273 small cell lung
EKVX NSCLC = test system: EKVX NSCLC
HCC-2998 colon = test system: HCC-2998 colon
HCT-116 colon = test system: HCT-116 colon
HCT-15 colon = test system: HCT-15 colon
HL-60(TB) leukemia = test system: HL-60(TB) leukemia
HOP-62 NSCLC = test system: HOP-62 NSCLC
HOP-92 NSCLC = test system: HOP-92 NSCLC
HT29 colon = test system: HT29 colon
IGROV1 ovarian = test system: IGROV1 ovarian
K-562 leukemia = test system: K-562 leukemia
KM12 colon = test system: KM12 colon
KM20L2 colon = test system: KM20L2 colon
LOX IMVI melanoma = test system: LOX IMVI melanoma
LXFL 529 NSCLC = test system: LXFL 529 NSCLC
M14 melanoma = test system: M14 melanoma
M19-MEL melanoma = test system: M19-MEL melanoma
MALME-3M melanoma = test system: MALME-3M melanoma
MOLT-4 leukemia = test system: MOLT-4 leukemia
NCI-H226 lung = test system: NCI-H226 lung
NCI-H460 lung = test system: NCI-H460 lung
NCI-H522 lung = test system: NCI-H522 lung
OVCAR-3 ovarian = test system: OVCAR-3 ovarian
OVCAR-4 ovarian = test system: OVCAR-4 ovarian
OVCAR-5 ovarian = test system: OVCAR-5 ovarian
OVCAR-8 ovarian = test system: OVCAR-8 ovarian
RPMI-8226 leukemia = test system: RPMI-8226 leukemia
RXF 393 renal = test system: RXF 393 renal
SF-268 CNS = test system: SF-268 CNS
SF-295 CNS = test system: SF-295 CNS
SF-539 CNS = test system: SF-539 CNS
SK-MEL-2 melanoma = test system: SK-MEL-2 melanoma
SK-MEL-28 melanoma = test system: SK-MEL-28 melanoma
SK-OV-3 ovarian = test system: SK-OV-3 ovarian
SN12C renal = test system: SN12C renal
SNB-19 CNS = test system: SNB-19 CNS
SNB-75 CNS = test system: SNB-75 CNS
SR leukemia = test system: SR leukemia
SW-620 colon = test system: SW-620 colon
TK-10 renal = test system: TK-10 renal
UACC-62 melanoma = test system: UACC-62 melanoma
UO-31 renal = test system: UO-31 renal
XF 498 CNS = test system: XF 498 CNS
A498 renal = test system: A498 renal
BT-549 breast = test system: BT-549 breast
DU-145 prostate = test system: DU-145 prostate
HS 578T breast = test system: HS 578T breast
MCF7 breast = test system: MCF7 breast
MDA-MB-231 breast = test system: MDA-MB-231 breast
MDA-MB-435 = test system: MDA-MB-435
MDA-N = test system: MDA-N
NCI-H23 lung = test system: NCI-H23 lung
NCI/ADR-RES ovarian = test system: NCI/ADR-RES ovarian
PC-3 prostate = test system: PC-3 prostate
SK-MEL-5 melanoma = test system: SK-MEL-5 melanoma
T-47D breast = test system: T-47D breast
U251 CNS = test system: U251 CNS
UACC-257 melanoma = test system: UACC-257 melanoma

CCCCCC(/C=C/c1ncccc1OCCCCCC(=O)O)=N\NC1=NCCN1
TGI (A549 NSCLC): > 100 µM | TGI (ACHN renal): > 100 µM | TGI (CAKI-1 renal): > 100 µM | TGI (CCRF-CEM leukemia): > 100 µM | TGI (COLO 205 colon): > 100 µM | TGI (DMS 114 small cell lung): > 100 µM | TGI (DMS 273 small cell lung): > 100 µM | TGI (EKVX NSCLC): > 100 µM | TGI (HCC-2998 colon): > 100 µM | TGI (HCT-116 colon): > 100 µM | TGI (HCT-15 colon): > 100 µM | TGI (HL-60(TB) leukemia): > 100 µM | TGI (HOP-62 NSCLC): > 100 µM | TGI (HOP-92 NSCLC): > 100 µM | TGI (HT29 colon): > 100 µM | TGI (IGROV1 ovarian): > 100 µM | TGI (K-562 leukemia): > 100 µM | TGI (KM12 colon): > 100 µM | TGI (KM20L2 colon): > 100 µM | TGI (LOX IMVI melanoma): > 100 µM | TGI (LXFL 529 NSCLC): > 100 µM | TGI (M14 melanoma): > 100 µM | TGI (M19-MEL melanoma): > 100 µM | TGI (MALME-3M melanoma): > 100 µM | TGI (MOLT-4 leukemia): > 100 µM | TGI (NCI-H226 lung): > 100 µM | TGI (NCI-H460 lung): > 100 µM | TGI (NCI-H522 lung): > 100 µM | TGI (OVCAR-3 ovarian): > 100 µM | TGI (OVCAR-4 ovarian): > 100 µM | TGI (OVCAR-5 ovarian): > 100 µM | TGI (OVCAR-8 ovarian): > 100 µM | TGI (RPMI-8226 leukemia): > 100 µM | TGI (RXF 393 renal): > 100 µM | TGI (SF-268 CNS): > 100 µM | TGI (SF-295 CNS): > 100 µM | TGI (SF-539 CNS): > 100 µM | TGI (SK-MEL-2 melanoma): > 100 µM | TGI (SK-MEL-28 melanoma): > 100 µM | TGI (SK-OV-3 ovarian): > 100 µM | TGI (SN12C renal): > 100 µM | TGI (SNB-19 CNS): > 100 µM | TGI (SNB-75 CNS): > 100 µM | TGI (SR leukemia): > 100 µM | TGI (SW-620 colon): > 100 µM | TGI (TK-10 renal): > 100 µM | TGI (UACC-62 melanoma): > 100 µM | TGI (UO-31 renal): > 100 µM | TGI (XF 498 CNS): 54.8 µM

S=C1Cc2c(-c3ccccc3)cc(-c3ccc(Cl)cc3)nc2-c2ccccc2N1
TGI (A498 renal): 4.27 µM | TGI (A549 NSCLC): > 33.9 µM | TGI (ACHN renal): 2.69 µM | TGI (BT-549 breast): 37.9 µM | TGI (CAKI-1 renal): 3.33 µM | TGI (CCRF-CEM leukemia): > 100 µM | TGI (COLO 205 colon): > 42 µM | TGI (DU-145 prostate): 53.1 µM | TGI (EKVX NSCLC): > 27.1 µM | TGI (HCC-2998 colon): > 36.8 µM | TGI (HCT-116 colon): 13.7 µM | TGI (HCT-15 colon): > 54.7 µM | TGI (HL-60(TB) leukemia): > 100 µM | TGI (HOP-62 NSCLC): 3.16 µM | TGI (HOP-92 NSCLC): 3.53 µM | TGI (HS 578T breast): 4.23 µM | TGI (HT29 colon): 15.2 µM | TGI (IGROV1 ovarian): 4.36 µM | TGI (KM12 colon): 51.3 µM | TGI (LOX IMVI melanoma): > 46.8 µM | TGI (M14 melanoma): > 38.5 µM | TGI (MALME-3M melanoma): 13 µM | TGI (MCF7 breast): > 72.6 µM | TGI (MDA-MB-231 breast): 5.22 µM | TGI (MDA-MB-435): > 38.8 µM | TGI (MDA-N): 16.2 µM | TGI (MOLT-4 leukemia): > 100 µM | TGI (NCI-H226 lung): > 31.9 µM | TGI (NCI-H23 lung): 19.8 µM | TGI (NCI-H460 lung): > 100 µM | TGI (NCI-H522 lung): > 24.2 µM | TGI (NCI/ADR-RES ovarian): > 27.3 µM | TGI (OVCAR-3 ovarian): 9.9 µM | TGI (OVCAR-4 ovarian): 1.71 µM | TGI (OVCAR-5 ovarian): 51.4 µM | TGI (OVCAR-8 ovarian): 4.64 µM | TGI (PC-3 prostate): 30.9 µM | TGI (RPMI-8226 leukemia): > 100 µM | TGI (RXF 393 renal): 11.2 µM | TGI (SF-268 CNS): 6.8 µM | TGI (SF-295 CNS): 18.9 µM | TGI (SF-539 CNS): 10.8 µM | TGI (SK-MEL-2 melanoma): 20.9 µM | TGI (SK-MEL-28 melanoma): > 31.9 µM | TGI (SK-MEL-5 melanoma): > 100 µM | TGI (SK-OV-3 ovarian): 7.26 µM | TGI (SN12C renal): 5.26 µM | TGI (SNB-19 CNS): 4.14 µM | TGI (SNB-75 CNS): 3.14 µM | TGI (SR leukemia): > 100 µM | TGI (SW-620 colon): 11.6 µM | TGI (T-47D breast): > 57.3 µM | TGI (TK-10 renal): 8.41 µM | TGI (U251 CNS): 2.34 µM | TGI (UACC-257 melanoma): 22.2 µM | TGI (UACC-62 melanoma): > 20.7 µM | TGI (UO-31 renal): > 24 µM
